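In this assay, cells in 96-well plates receive the compound at five concentrations for 48 hours. Endpoints are linearly interpolated between the surrounding concentrations. GI50 is the concentration that inhibits growth by half. TGI is the concentration that stops growth completely.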
Columns and labels:
Assay in all cases: DTP human tumour cell line panel, 48 h
[1] = tested on: M14 melanoma
[2] = tested on: HCT-116 colon
[3] = tested on: SF-295 CNS
[4] = tested on: MALME-3M melanoma
[5] = tested on: EKVX NSCLC
[6] = tested on: HT29 colon
[7] = tested on: RXF 393 renal
[8] = tested on: MOLT-4 leukemia
[9] = tested on: HS 578T breast
[10] = tested on: NCI-H23 lung
[11] = tested on: OVCAR-3 ovarian
[12] = tested on: BT-549 breast
[13] = tested on: IGROV1 ovarian
[14] = tested on: OVCAR-8 ovarian
[15] = tested on: SW-620 colon
[16] = tested on: HL-60(TB) leukemia
[17] = tested on: KM12 colon
[18] = tested on: CAKI-1 renal
[19] = tested on: SK-MEL-5 melanoma
[20] = tested on: MCF7 breast
[21] = tested on: 786-0 renal
[22] = tested on: SR leukemia
[23] = tested on: A549 NSCLC
[24] = tested on: NCI/ADR-RES ovarian
[25] = tested on: HOP-92 NSCLC
[26] = tested on: HCT-15 colon
[27] = tested on: SF-268 CNS
[28] = tested on: RPMI-8226 leukemia
[29] = tested on: SK-MEL-28 melanoma
[30] = tested on: HOP-62 NSCLC
[31] = tested on: MDA-MB-231 breast
[32] = tested on: SK-OV-3 ovarian
[33] = tested on: UACC-257 melanoma
[34] = tested on: T-47D breast
[35] = tested on: CCRF-CEM leukemia
[36] = tested on: LOX IMVI melanoma
[37] = tested on: MDA-MB-468 breast
[38] = tested on: UO-31 renal
[39] = tested on: NCI-H522 lung
[40] = tested on: NCI-H226 lung
[41] = tested on: OVCAR-5 ovarian
[42] = tested on: TK-10 renal
[43] = tested on: K-562 leukemia
[44] = tested on: SK-MEL-2 melanoma
[45] = tested on: NCI-H460 lung
[46] = tested on: COLO 205 colon
[47] = tested on: PC-3 prostate
[48] = tested on: SN12C renal
[49] = tested on: MDA-MB-435
[50] = tested on: ACHN renal
[51] = tested on: HCC-2998 colon
[52] = tested on: SF-539 CNS
[53] = tested on: DU-145 prostate
[54] = tested on: SNB-75 CNS
[55] = tested on: U251 CNS
[56] = tested on: UACC-62 melanoma
[57] = tested on: A498 renal
[58] = tested on: OVCAR-4 ovarian
[59] = tested on: SNB-19 CNS

For Cc1cccc(/C=C/c2ccc(NC(=S)NCCCCN(C)C)cc2)c1, the GI50 [1] was 15.4 µM, the TGI [1] was 31.6 µM and the GI50 [2] was 11 µM. It also gave a TGI [2] of 29.6 µM, a GI50 [3] of 16.2 µM and a TGI [3] of 31.5 µM. It also gave a GI50 [4] of 15.8 µM, a TGI [4] of 29.6 µM and a GI50 [5] of 16.2 µM. The TGI [5] was 31.2 µM, the GI50 [6] was 5.38 µM and the TGI [6] was 29.9 µM. It also gave a GI50 [7] of 11.3 µM, a TGI [7] of 24.2 µM and a GI50 [8] of 13.4 µM. For the same compound, the TGI [8] was 37.5 µM, the GI50 [9] was 16.6 µM and the TGI [9] was 38.4 µM. For the same compound, the GI50 [10] was 16.1 µM, the TGI [10] was 31.2 µM and the GI50 [11] was 12.7 µM. The TGI [11] was 26.1 µM, the GI50 [12] was 15.3 µM and the TGI [12] was 29.9 µM. It also gave a GI50 [13] of 16.6 µM, a TGI [13] of 31.2 µM and a GI50 [14] of 18.9 µM. It also gave a TGI [14] of 38.1 µM, a GI50 [15] of 14.8 µM and a TGI [15] of 29.5 µM. It also gave a GI50 [16] of 8.41 µM, a TGI [16] of 29.7 µM and a GI50 [17] of 16.5 µM. For the same compound, the TGI [17] was 31.9 µM, the GI50 [18] was 14.5 µM and the TGI [18] was 27.9 µM. For the same compound, the GI50 [19] was 15.9 µM, the TGI [19] was 29.4 µM and the GI50 [20] was 11.8 µM. It also gave a TGI [20] of 27.5 µM, a GI50 [21] of 14.9 µM and a TGI [21] of 30.1 µM. For the same compound, the GI50 [22] was 12.2 µM, the TGI [22] was 39.2 µM and the GI50 [23] was 18.4 µM. For the same compound, the TGI [23] was 39.8 µM, the GI50 [24] was 16.3 µM and the TGI [24] was 32.3 µM. For the same compound, the GI50 [25] was 8.39 µM, the TGI [25] was 24.3 µM and the GI50 [26] was 11.9 µM. The TGI [26] was 25.1 µM, the GI50 [27] was 13.8 µM and the TGI [27] was 28.5 µM. It also gave a GI50 [28] of 20.1 µM, a TGI [28] of 72.4 µM and a GI50 [29] of 15.6 µM. For the same compound, the TGI [29] was 29.3 µM, the GI50 [30] was 19 µM and the TGI [30] was 37.9 µM. The GI50 [31] was 12.9 µM, the TGI [31] was 26.6 µM and the GI50 [32] was 19.7 µM. The TGI [32] was 36.4 µM, the GI50 [33] was 18.1 µM and the TGI [33] was 34.8 µM. For the same compound, the GI50 [34] was 16.9 µM, the TGI [34] was 36.9 µM and the GI50 [35] was 11.7 µM. The TGI [35] was 37.3 µM, the GI50 [36] was 11.6 µM and the TGI [36] was 25.4 µM. For the same compound, the GI50 [37] was 12.7 µM, the TGI [37] was 26.6 µM and the GI50 [38] was 14.2 µM. It also gave a TGI [38] of 27.3 µM, a GI50 [39] of 15.9 µM and a TGI [39] of 33.5 µM. It also gave a GI50 [40] of 14.9 µM, a TGI [40] of 31.2 µM and a GI50 [41] of 15.5 µM. For the same compound, the TGI [41] was 29.5 µM, the GI50 [42] was 20.7 µM and the TGI [42] was 38.5 µM. The GI50 [43] was 3.96 µM, the TGI [43] was > 100 µM and the GI50 [44] was 18.5 µM. The TGI [44] was 34.9 µM, the GI50 [45] was 12.8 µM and the TGI [45] was 27.3 µM. For the same compound, the GI50 [46] was 15.6 µM, the TGI [46] was 33.5 µM and the GI50 [47] was 14.2 µM. The TGI [47] was 32.2 µM, the GI50 [48] was 14.9 µM and the TGI [48] was 29 µM. It also gave a GI50 [49] of 13.9 µM, a TGI [49] of 27.7 µM and a GI50 [50] of 16.3 µM. For the same compound, the TGI [50] was 29.9 µM, the GI50 [51] was 15.1 µM and the TGI [51] was 29.9 µM. It also gave a GI50 [52] of 13.4 µM, a TGI [52] of 26.3 µM and a GI50 [53] of 15.1 µM. It also gave a TGI [53] of 29.2 µM, a GI50 [54] of 9.05 µM and a TGI [54] of 21.9 µM. It also gave a GI50 [55] of 16.1 µM, a TGI [55] of 33.7 µM and a GI50 [56] of 15.9 µM. For the same compound, the TGI [56] was 29.6 µM, the GI50 [57] was 13.5 µM and the TGI [57] was 27.4 µM. The GI50 [58] was 14.8 µM, the TGI [58] was 29 µM and the GI50 [59] was 16.1 µM. It also gave a TGI [59] of 29.8 µM.
